# According to patent publication US20140050674A1, “Method for Improving Penetration or Long Term Adhesion of Compositions to Dental Tissues and Compositions Usable in Said Method” (University of Oulu, priority 2011, published 2014):
# Experiments:
# [1] = tested on: MDPC-23 cells; experiment: Viable cell number (Trypan Blue); format: cell-based; conditions: 24 h
# Protocol: (§1) Immortalized odontoblast-like MDPC-23 cell line, frequently used for the evaluation of cytotoxicity of dental materials, was used to analyse the effect of different DMSO concentrations on pulpal cell viability. The cell culturing and methodology followed that described by Aranha et al. (2011). Briefly, DMEM culture medium with different concentrations of DMSO (0.05, 0.1, 0.3, 0.5 and 1.0 mM) were placed in contact with MDPC-23 cells (5×10^4 cells/cm^2) for 24 h. Pure DMEM was used in the control group. Twelve replicates were prepared in each group, except for flow cytometry analysis (n=8). Viable cell number (Trypan Blue), cell metabolism (production of succinic dehydrogenase enzyme-SDH, MTT assay) and cell death by necrosis (flow cytometry) were evaluated as described before (Ribeiro et al. 2010, Aranha et al. 2011).
# [2] = tested on: MDPC-23 cells; experiment: Cell metabolism (SDH production, MTT assay); format: cell-based; conditions: 24 h
# Protocol: as §1
# [3] = tested on: MDPC-23 cells; experiment: Cell death by necrosis (flow cytometry); format: cell-based; conditions: 24 h
# Protocol: as §1
# [4] = tested on: gelatinases MMP-2 and MMP-9; experiment: Gelatin zymography; format: biochemical, human
# Protocol: Gelatin zymography was performed in 10% SDS-PAGE containing 1 mg/ml labelled gelatin in a usual fashion (Invitrogen, Carlsbad, Calif., USA) (O'Grady et al. 1984). After the electrophoresis, SDS was removed by 2.5% Triton X-100 to renature the gelatinases. Gels were then incubated overnight at 37° C. in 50 mM Tris-HCl buffer (5 mM CaCl2, 1 μM ZnCl2, 0.02% NaN3, pH 7.5) zymography incubation buffer with 0%, 0.1%, 2.5%, 5%, 10% or 20% of DMSO to observe the effect of DMSO concentration on the MMP activity. The degradation of gelatin was visualized under UV light. Gels were also stained with 0.5% Coomassie Blue R-250. The intensities of the bands were quantified by ScionImage software (Scion Corporation, Frederick, Mass., USA). The analysis was done as triplicates, and relative amounts against 0% DMSO were calculated.
# [5] = biological target: T1, MMP-2 (Homo sapiens, UniProt P08253); experiment: EnzChek Gelatinase/Collagenase Assay Kit; format: biochemical; conditions: 3% DMSO; APMA-activated MMP-2; 24 h incubation
# T1 construct: made in house
# T1 sequence (P08253 110-660): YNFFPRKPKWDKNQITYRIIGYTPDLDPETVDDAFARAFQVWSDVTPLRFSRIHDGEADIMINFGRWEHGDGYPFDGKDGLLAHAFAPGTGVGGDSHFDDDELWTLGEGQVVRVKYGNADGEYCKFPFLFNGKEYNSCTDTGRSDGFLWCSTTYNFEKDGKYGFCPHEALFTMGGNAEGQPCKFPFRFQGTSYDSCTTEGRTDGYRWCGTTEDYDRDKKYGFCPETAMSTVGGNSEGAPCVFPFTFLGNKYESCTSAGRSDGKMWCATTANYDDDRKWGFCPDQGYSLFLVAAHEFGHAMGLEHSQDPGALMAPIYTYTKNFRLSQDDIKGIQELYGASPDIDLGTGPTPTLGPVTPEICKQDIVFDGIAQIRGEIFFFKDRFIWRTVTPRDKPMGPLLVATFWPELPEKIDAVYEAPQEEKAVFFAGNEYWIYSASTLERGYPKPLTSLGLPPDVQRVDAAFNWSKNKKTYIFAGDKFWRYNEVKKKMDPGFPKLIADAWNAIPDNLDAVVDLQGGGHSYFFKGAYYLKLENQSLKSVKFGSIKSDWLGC
# Protocol: (§2) EnzChek Gelatinase/Collagenase Assay Kit (Molecular Probes, Eugene, Oreg., USA) was used to detect the effect of DMSO on the gelatinolytic activities of MMP-2 and -9 according to manufacturer's protocol. Briefly, 3 ng of MMP-2 (purified from cell culture media), 3 ng MMP-9 (purified from cell culture media), and 5 ng of recombinant MMP-9 (Chemicon) were diluted into the reaction buffer (50 mM Tris-HCl, 150 mM NaCl, 5 mM CaCl2, 0.2 mM NaN3, pH 7.6) and incubated with quenched fluorescein-conjugated gelatin (50 μg/ml) and 0%, 0.01%, 0.1%, 0.5%, 1%, 2%, 3%, 4% or 5% of DMSO in a black-walled 96 well microplate at RT in dark. Fluorescent intensity indicating the gelatinolysis was measured at multiple time points with Fluoromax2/Micromax fluorometer (ISA Jobin Yvon-Spex, Edison, N.J., USA). Analyses were performed as quadruplicates. The relative intensities were calculated against 0% of DMSO.
# [6] = tested on: MMP-2; experiment: EnzChek Gelatinase/Collagenase Assay Kit; format: biochemical; conditions: 4 to 5% DMSO; non-activated (no APMA) and activated (APMA) MMP-2
# Protocol: as §2
# [7] = tested on: dentin collagenolytic enzymes; experiment: Hydroxyproline release from demineralized dentin beams; format: biochemical
# Protocol: Type I collagen contains about 10 mass % hydroxyproline (HYP), an amino acid almost non-existent in other proteins. Detection of HYP release form demineralized dentin beams was used to evaluate whether DMSO would be effective in inhibiting MMPs in dentin collagen matrix, using a method described in Carrilho et al. 2009. Seventy-six dentin beams (1 mm×1 mm×9 mm) were divided into four groups (n=19 per group) and demineralized. Each beam was individually incubated in a polypropylene tubes with 1 ml of medium containing 50 mmol/L HEPES, 5 mmol/L CaCl2 2H2O, 0.001 mmol/L ZnCl2, 150 mmol/L NaCl, and 3 mmol/L NaN3, pH 7.2, that ensures availability of Zn- and Ca-ions for MMP function. The control samples were incubated in a medium without DMSO: in two groups the beams were incubated with DMSO in medium with 0.001% and 0.01% concentrations. In one group, demineralized dentin beams were immersed in 5% DMSO for 15 minutes and then incubated in a medium without DMSO for the rest of the experiment. Tubes were incubated in a water-shaker bath at 37° C. for a week. Then the medium was completely removed and quantitated for HYP content according to the colorimetric absorbance method described by Jamall et al (1981). Fresh 1 mL of medium was replaced in each tube for additional three weeks of incubation, when the media was removed and analyzed for HYP content. HYP standards were prepared from a 1 mg/mL HYP stock solution in 50% isopropanol. The resulting amount of HYP (mg/mL) was used to estimate the percentage of solubilized (degraded) collagen assuming that 90% of the dry mass of demineralized dentin beams consisted of type I collagen and that 10 mass % of collagen is HYP (Carrilho et al. 2009).
compound,measurement,setting,value
"C[S+](C)[O-] [DMSO, dimethyl sulphoxide]","Cell number (viable cells, Trypan Blue)",[1]; 0.05 mM DMSO,3.7 (0.9) a
same,"Cell number (viable cells, Trypan Blue)",[1]; 0.1 mM DMSO,4.3 (1.1) a
same,"Cell number (viable cells, Trypan Blue)",[1]; 0.3 mM DMSO,4.1 (1.4) a
same,"Cell number (viable cells, Trypan Blue)",[1]; 0.5 mM DMSO,4.1 (0.9) a
same,"Cell number (viable cells, Trypan Blue)",[1]; 1.0 mM DMSO,4.1 (1.3) a
same,Number of cells vs control,"[1]; 0.05-1.0 mM DMSO, p>0.05",no differences
same,Cytotoxicity to odontoblast-like cells,"[1]; direct contact, 0.05-1.0 mM DMSO",not cytotoxic or cytophatic
same,"Cell metabolism (SDH production, MTT assay)",[2]; 0.05 mM DMSO,2.343 (2.287-2.387) ab
same,"Cell metabolism (SDH production, MTT assay)",[2]; 0.1 mM DMSO,2.468 (2.359-2.557) a
same,"Cell metabolism (SDH production, MTT assay)",[2]; 0.3 mM DMSO,2.484 (2.399-2.520) a
same,"Cell metabolism (SDH production, MTT assay)",[2]; 0.5 mM DMSO,2.478 (2.294-2.542) ab
same,"Cell metabolism (SDH production, MTT assay)",[2]; 1.0 mM DMSO,2.410 (2.119-2.501) ab
same,Production of SDH enzyme vs control,"[2]; 0.05-1.0 mM DMSO, not concentration-dependent",Slight increase
same,"% Cell Death (necrosis, flow cytometry)",[3]; 0.05 mM DMSO,1.2 (0.8-1.6) a %
same,"% Cell Death (necrosis, flow cytometry)",[3]; 0.1 mM DMSO,1.3 (0.9-1.6) a %
same,"% Cell Death (necrosis, flow cytometry)",[3]; 0.3 mM DMSO,1.2 (0.6-1.6) a %
same,"% Cell Death (necrosis, flow cytometry)",[3]; 0.5 mM DMSO,1.3 (0.8-1.5) a %
same,"% Cell Death (necrosis, flow cytometry)",[3]; 1.0 mM DMSO,1.3 (0.8-1.6) a %
same,Cell death by necrosis vs control,"[3]; 0.05-1.0 mM DMSO, p>0.05",no differences
same,Effect on gelatinase activity (disappearance of bands),"[4]; 0.1-20% DMSO in incubation buffer, recombinant human MMP-2 and MMP-9",inhibitory activity
same,MMP inhibition,"[4]; 5% DMSO (FIG. 12, FIG. 13)",up to 75.3%
same,MMP inhibition,"[4]; 20% DMSO (FIG. 12, FIG. 13)",up to 94.7%
same,Inhibition of MMP-2 gelatinolytic activity,[5],statistically significant inhibition
same,Inhibition of MMP-2 gelatinolytic activity,[6],theoretical maximum inhibition
same,HYP release into the medium,"[7]; 0.001% DMSO in medium, 4-week incubation",significantly decreased
same,HYP release into the medium,"[7]; 0.01% DMSO in medium, 4-week incubation",significantly decreased
same,HYP release into the medium,[7]; 15 minute immersion in 5% DMSO prior the 4-week incubation,significantly decreased
same,Demineralized dentin collagen degradation by matrix enzymes,[7]; DMSO (FIG. 14),significant decrease in collagen degradation
